Measured values: publication PMC11984419, “Differential senolytic inhibition of normal versus Aβ-associated cholinesterases: implications in aging and Alzheimer’s disease” (Aging (Albany NY), 2025)
Counter-ions that a name gives are not always drawn. Like-named read-outs stand apart in the source and are kept apart here.

Assays:
[1] = tested on: ChE associated with plaques; settings: ref [37]; cited from earlier work
[2] = tested on: ChE associated with normal neural elements; settings: ref [37]; cited from earlier work
[3] = target: T1, recombinant human AChE (Homo sapiens, UniProt P22303); experiment: Enzyme kinetic study (Ellman's assay, Lineweaver-Burk) with AChE; format: biochemical; settings: for AChE mode of inhibition: from Lineweaver-Burk plots
T1 construct: purchased MilliporeSigma Canada Ltd. (Oakville, Ontario, Canada)
Procedure: (§1) Enzyme kinetic studies were performed as previously described, using Ellman’s assay. Briefly, in a quartz cuvette (1 cm pathlength), a 0.577 mM DTNB solution in 0.1 M potassium phosphate buffer (1.6 mL, pH 7.0) was combined at room temperature with either recombinant AChE (0.1 mL, 3.7 nM) in 0.005% aqueous gelatin or purified human serum BChE (0.1 mL, 5.85 nM) in 0.005% aqueous gelatin and mixed with a senolytic or nootropic compound (Figure 1) dissolved in 50% (v/v) aqueous acetonitrile (0.05 mL). […] Substrate concentrations were kept constant while the senolytic concentrations varied (0-140 μM). Changes in absorbance (ΔA/min), reflecting the rate of ATChI or BTChI hydrolysis with their respective enzymes, were recorded spectrophotometrically every 5 seconds for 1 minute.
(§2) As done previously, Lineweaver-Burk plots were generated for each senolytic and nootropic compound with the velocity (v) of each reaction determined using Beer’s Law, where v = (ΔA/min)/(εl), ε is the molar extinction coefficient for 5-thio-2-nitrobenzoic acid (TNB) (13600 M^−1 cm^−1), and l is the cuvette pathlength (1 cm). Replotting the calculated slopes from each double reciprocal plot against senolytic and nootropic concentrations, gave the inhibitor constant (Ki, M) as the x-intercept. The mode of inhibition (competitive, non-competitive, mixed non-competitive, or uncompetitive) was also determined by analyzing the relational pattern of linear regressions for varying concentrations of the same senolytic or nootropic compound. Enzyme kinetic experiments were performed in triplicate and kinetic parameter values were averaged.

[4] = target: T2, BChE purified from human plasma (Homo sapiens, UniProt P06276); experiment: Enzyme kinetic study (Ellman's assay, Lineweaver-Burk) with BChE; format: biochemical; settings: for BChE mode of inhibition: from Lineweaver-Burk plots
T2 construct: BChE purified from human plasma was a gift from Dr. Oksana Lockridge; tissue gift from Dr. Oksana Lockridge (Eppley Institute, University of Nebraska Medical Center); host or cells: human plasma
Procedure: as §1, §2

[5] = target: T3, AChE associated with β-amyloid plaques (Homo sapiens, UniProt P22303); experiment: Karnovsky-Roots histochemical staining, AChE associated with plaques (pH 6.8); format: biochemical; settings: for Inhibition of AChE staining associated with plaques (in words): pH 6.8, compared with control staining; for Inhibition of staining, AChE pH 6.8: plaques, AD orbitofrontal cortex, average ranking of four AD cases, compound 0.25-1.3 mM in KR solution
T3 construct: post-mortem brain tissues from sex- and age-matched AD cases; tissue Maritime Brain Tissue Bank, Dalhousie University; host or cells: post-mortem human AD brain: orbitofrontal cortex (plaques, pH 6.8) and thalamus (normal neural elements, pH 8.0)
Procedure: (§3) Histochemical staining for AChE and BChE activity in brain tissues was done using a modified Karnovsky-Roots (KR) method. Tissue sections were first rinsed for 30 min in 0.1 M PB, followed by 30 min in 0.1 M PB with […] hydrogen peroxide (H2O2) and then rinsed for 30 min with 0.1 M maleate buffer (MB; pH 6.8 or […]) prior to incubation in the KR solution. Sections stained for AChE were incubated in the KR solution for 1.75 hr, while sections stained for BChE were incubated for 2.5 hr. The KR staining solution contained 0.5 mM sodium citrate, 0.47 mM cupric sulfate, and 0.05 mM of potassium ferricyanide, a thioester ChE substrate and ChE inhibitor in MB at pH 6.8 to stain for ChEs associated with AD pathology or pH 8.0 to stain for ChEs associated with normal neural elements. For AChE staining, ATChI (0.4 mM) was used as the substrate and ethopropazine (0.06 mM) was used to inhibit BChE. For BChE staining, BTChI (0.8 mM) was used as the substrate and BW 284c51 (0.01 mM) was used to inhibit AChE. Following incubation in KR, sections were rinsed in distilled water (dH2O) for 30 min, incubated in a 0.1% cobalt chloride solution in dH2O for 10 min, and rinsed again in dH20 for 30 min. Sections were incubated in 1.39 mM 3,3’-diaminobenzidine tetrahydrochloride (DAB) in PB (pH 7.4) for 5 min and then developed using 50 μL of 0.3% H2O2 per mL of DAB solution. The reaction was stopped by a 30 min rinse in 0.01 M acetate buffer (pH 3.3). Stained sections were mounted on glass slides, cover-slipped and examined with brightfield microscopy.
(§4) To evaluate the interactions of senolytic and nootropic compounds with ChEs in brain tissues, the above histochemical technique was used with minor variations to the KR incubation. Senolytic and nootropic compounds were dissolved in 50% aqueous acetonitrile to make a stock solution. […] Following incubation for AChE (1.75 hr) and BChE (2.5 hr) in the KR solution, staining was completed as described above.
(§5) Positive controls included staining for BChE and AChE activity at pH 6.8 and pH 8.0 without any additions. Negative controls were utilized to validate staining specificity of BChE and AChE at pH 6.8 and pH 8.0, where the substrates (BTChI and ATChI, respectively) were omitted, as previously described. […] Briefly, 50% aqueous acetonitrile was added to the KR solution, without any senolytic or nootropic compound, while maintaining the same volume as the compound additives.
(§6) A qualitative method was used to evaluate the effect of senolytic and nootropic compounds on ChE histochemical staining, as done previously. Inhibition of staining intensity was categorized as follows: No reduction (-), slight (x), moderate (xx), or strong (xxx). Tissue sections were analyzed using brightfield microscopy on an Olympus BX50F microscope (Olympus Optical Co., Ltd., Tokyo, Japan). Photomicrographs of the stained tissue sections were taken using a Zeiss Axio Scan.Z1 slide scanner with Zen 3.1 Blue Edition software (Carl Zeiss Canada Ltd., Toronto, Ontario, Canada). Figures were assembled using Adobe Photoshop (CS 5, Version 12.0, San Diego, CA, USA). The brightness of each individual image was adjusted to ensure backgrounds matched for analysis.

[6] = target: T4, BChE associated with β-amyloid plaques (Homo sapiens, UniProt P06276); experiment: Karnovsky-Roots histochemical staining, BChE associated with plaques (pH 6.8); format: biochemical; settings: for Inhibition of BChE staining associated with plaques (in words): pH 6.8, compared with control staining; for Inhibition of staining, BChE pH 6.8: plaques, AD orbitofrontal cortex, average ranking of four AD cases, compound 0.25-1.3 mM in KR solution
T4 construct: post-mortem brain tissues from sex- and age-matched AD cases; tissue Maritime Brain Tissue Bank, Dalhousie University; host or cells: post-mortem human AD brain: orbitofrontal cortex (plaques, pH 6.8) and thalamus (normal neural elements, pH 8.0)
Procedure: as §3, §4, §5, §6

[7] = target: T5, AChE associated with normal neural elements (Homo sapiens, UniProt P22303); experiment: Karnovsky-Roots histochemical staining, AChE associated with normal neural elements (pH 8.0); format: biochemical; settings: for Inhibition of staining, AChE pH 8.0: normal neural elements, AD thalamus, average ranking of four AD cases, compound 0.25-1.3 mM in KR solution; for Inhibition of AChE staining associated with normal neural elements (in words): pH 8.0, relative to controls
T5 construct: post-mortem brain tissues from sex- and age-matched AD cases; tissue Maritime Brain Tissue Bank, Dalhousie University; host or cells: post-mortem human AD brain: orbitofrontal cortex (plaques, pH 6.8) and thalamus (normal neural elements, pH 8.0)
Procedure: as §3, §4, §5, §6

[8] = target: T6, BChE associated with normal neural elements (Homo sapiens, UniProt P06276); experiment: Karnovsky-Roots histochemical staining, BChE associated with normal neural elements (pH 8.0); format: biochemical; settings: for Inhibition of staining, BChE pH 8.0: normal neural elements, AD thalamus, average ranking of four AD cases, compound 0.25-1.3 mM in KR solution; for Inhibition of BChE staining associated with normal neural elements (in words): pH 8.0, relative to controls
T6 construct: post-mortem brain tissues from sex- and age-matched AD cases; tissue Maritime Brain Tissue Bank, Dalhousie University; host or cells: post-mortem human AD brain: orbitofrontal cortex (plaques, pH 6.8) and thalamus (normal neural elements, pH 8.0)
Procedure: as §3, §4, §5, §6

[9] = target: AChE; settings: ref Katalinić et al. [60]; read-out: Literature AChE Ki values; cited from earlier work
[10] = target: BChE; settings: read-out: Literature BChE Ki values, cited from earlier work
[11] = purified human serum BChE, BTChI substrate, pH 7.0, triplicate

T3 sequence (P22303 32-614): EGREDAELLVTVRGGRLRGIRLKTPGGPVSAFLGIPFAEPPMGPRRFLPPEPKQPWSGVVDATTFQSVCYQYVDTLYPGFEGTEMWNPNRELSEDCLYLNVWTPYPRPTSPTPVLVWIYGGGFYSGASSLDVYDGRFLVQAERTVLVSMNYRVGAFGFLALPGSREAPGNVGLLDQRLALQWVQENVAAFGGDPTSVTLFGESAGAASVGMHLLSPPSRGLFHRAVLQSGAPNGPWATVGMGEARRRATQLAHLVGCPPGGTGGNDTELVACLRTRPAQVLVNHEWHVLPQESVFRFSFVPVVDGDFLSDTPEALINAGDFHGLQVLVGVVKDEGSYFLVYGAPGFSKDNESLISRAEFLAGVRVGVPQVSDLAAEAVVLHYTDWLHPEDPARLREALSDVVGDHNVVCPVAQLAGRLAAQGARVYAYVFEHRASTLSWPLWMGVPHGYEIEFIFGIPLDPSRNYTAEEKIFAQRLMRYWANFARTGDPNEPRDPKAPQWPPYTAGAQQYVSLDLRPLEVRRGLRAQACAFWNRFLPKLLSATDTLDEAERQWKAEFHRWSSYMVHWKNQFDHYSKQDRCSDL
T1 sequence (P22303 32-614): as above
T5 sequence (P22303 32-614): as above
T4 sequence (P06276 29-602): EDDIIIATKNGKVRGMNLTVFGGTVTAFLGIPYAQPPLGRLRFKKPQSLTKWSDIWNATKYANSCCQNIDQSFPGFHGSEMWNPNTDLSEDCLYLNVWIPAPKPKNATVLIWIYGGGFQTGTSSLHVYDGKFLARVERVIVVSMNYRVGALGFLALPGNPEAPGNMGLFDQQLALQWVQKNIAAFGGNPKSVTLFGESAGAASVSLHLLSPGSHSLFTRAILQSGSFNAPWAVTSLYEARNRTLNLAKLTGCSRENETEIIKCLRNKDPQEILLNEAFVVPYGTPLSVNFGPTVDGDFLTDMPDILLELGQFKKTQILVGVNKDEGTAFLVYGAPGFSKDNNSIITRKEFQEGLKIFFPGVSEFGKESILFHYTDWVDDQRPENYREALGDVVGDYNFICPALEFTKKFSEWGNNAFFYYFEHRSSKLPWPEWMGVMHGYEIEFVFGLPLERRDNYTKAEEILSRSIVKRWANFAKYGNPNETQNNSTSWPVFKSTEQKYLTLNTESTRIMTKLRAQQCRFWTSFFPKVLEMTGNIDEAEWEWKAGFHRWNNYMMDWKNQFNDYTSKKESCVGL
T2 sequence (P06276 29-602): as above
T6 sequence (P06276 29-602): as above

Compound | Ki [3] [µM] | AChE mode of inhibition [3] | BChE mode of inhibition [4] | Inhibition of AChE staining associated with plaques (in words) [5] | Inhibition of BChE staining associated with plaques (in words) [6] | Inhibition of staining, AChE pH 8.0 [7] | Inhibition of AChE staining associated with normal neural elements (in words) [7] | Inhibition of staining, BChE pH 8.0 [8] | Inhibition of BChE staining associated with normal neural elements (in words) [8] | Inhibition of staining, AChE pH 6.8 [5] | Inhibition of staining, BChE pH 6.8 [6] | other results
COc1ccc2c3c1O[C@H]1C[C@@H](O)C=C[C@@]31CCN(C)C2 [galantamine] | – | – | – | – | – | – | – | – | – | – | – | Inhibition of ChE staining associated with plaques [1]: inhibits; Inhibition of ChE staining associated with normal neural elements [2]: inhibits
CN(C)CCOC(=O)COc1ccc(Cl)cc1 [Meclofenoxate Hydrochloride (6), meclofenoxate hydrochloride] | 63.2 | (Mixed Non-competitive) | (Mixed Non-competitive) | moderate to strong inhibition | slight inhibition | - (– (no inhibition)) | did not inhibit | - (– (no inhibition)) | did not inhibit | – | – | –
O=c1c(O)c(-c2ccc(O)c(O)c2)oc2cc(O)ccc12 [Fisetin (3), fisetin] | – | competitive inhibition | uncompetitive inhibition | – | – | – | – | – | – | – | – | Ki ([3]; recombinant human AChE, ATChI substrate, pH 7.0, triplicate, read-out: Experimental AChE Ki): 110 µM; Ki ([4]; purified human serum BChE, BTChI substrate, pH 7.0, triplicate, read-out: Experimental BChE Ki): 94.4 µM; Ki [9]: 100 µM; Ki ([10]; ref Katalinić et al. [60]): 94.2 µM
COC(=O)c1ccc2c(c1)NC(=O)/C2=C(\Nc1ccc(N(C)C(=O)CN2CCN(C)CC2)cc1)c1ccccc1 [Nintedanib (2), nintedanib] | 7.1 | (Mixed Non-competitive) | – | complete inhibition | complete inhibition | - (– (no inhibition)) | no inhibition | - (– (no inhibition)) | no inhibition | xxx (xxx (strong inhibition)) | xxx (xxx (strong inhibition)) | Experimental BChE Ki [4, 11]: No Inhibition; Experimental BChE Ki ([4]; purified human serum BChE, BTChI substrate, pH 7.0, triplicate, listed as 2): did not inhibit
COc1ccc(COc2ccc(Cc3cnc(N)nc3N)cc2OC)cc1 [GW2580 (5), GW2580] | 71 | (Mixed Non-competitive) | – | did not inhibit | did inhibit | - (– (no inhibition)) | did not inhibit | - (– (no inhibition)) | did not inhibit | - (– (no inhibition)) | x/xx | Experimental BChE Ki [4, 11]: No Inhibition; Experimental BChE Ki ([4]; purified human serum BChE, BTChI substrate, pH 7.0, triplicate, listed as 5): did not inhibit
O=c1c(O)c(-c2ccc(O)c(O)c2)oc2cc(O)cc(O)c12 [Quercetin (4), quercetin] | 62.2 | (Mixed Non-competitive) | (Mixed Non-competitive) | – | – | – | – | – | – | – | – | Ki ([10]; ref Katalinić et al. [60]): 68 µM; Ki ([10]; ref Orhan et al. [87]): 46.8 µM
Cc1nc(Nc2ncc(C(=O)Nc3c(C)cccc3Cl)s2)cc(N2CCN(CCO)CC2)n1 [Dasatinib (1), dasatinib] | 28.2 | (Mixed Non-competitive) | (Mixed Non-competitive) | reduced by varying degrees | complete inhibition | - (– (no inhibition)) | no inhibition | - (– (no inhibition)) | no inhibition | xx/x^a | xxx (xxx (strong inhibition)) | –
